Experiment [1] deals with P. aeruginosa KW799/61. In words: MIC90 by broth microdilution assay. It is filed as cell-based. As to conditions: Pseudomonas aeruginosa, KW799/61, 20 h. Here is the method: (§1) ^aMIC90 values (μM) were determined using the broth microdilution method in Mueller-Hinton broth No. 2 (MHII) with visual end point analysis according to the CLSI guidelines (Methods for Dilution Antimicrobial Susceptibility Tests for Bacteria that Grow Aerobically, 8th ed. (Villanova, Pa., USA), Clinical and Laboratory Standards Institute (CLSI), 2009, approved standard document M07-A7). ^bEach compound was tested in triplicate.
(§2) All liquids and media were sterilized by autoclaving (121° C., 15 min) before use. All aqueous solutions and media were prepared using distilled, deionized, and filtered water (Millipore Milli-Q Advantage A10 Water Purification System). Luria broth (LB) was purchased from VWR. Mueller-Hinton No. 2 broth (MHII broth; cation adjusted) was purchased from Sigma-Aldrich (St. Louis, Mo.). Iron-deficient (—Fe) MHII broth was prepared by adding 0.8 mL of a 1 mg/mL sterile aq. solution of 2,2′-bipyridine to 49.2 mL of MHII broth. Iron-rich (+Fe) MHII broth was prepared by adding 0.8 mL of a 1 mg/mL sterile aq. solution of FeCl3 to 49.2 mL of MHII broth. Mueller-Hinton No. 2 agar (MHII agar; HiMedia Laboratories) was purchased from VWR. Iron-deficient (−Fe) MHII agar was prepared by adding 0.5 mL of a 1 mg/mL sterile aq. solution of 2,2′-bipyridine to 34 mL of melted MHII agar with gentle mixing. Iron-rich (+Fe) MHII agar was prepared by adding 0.5 mL of a 1 mg/mL sterile aq. solution of FeCl3 to 34 mL of melted MHII agar with gentle mixing. See also Wencewicz, T. A. Dissertation, University of Notre Dame, Notre Dame, Ind., 2011, for relevant techniques.
(§3) Determination of MIC90 Values by the Broth Microdilution Assay.
(§4) Antibacterial activity of the compounds was determined by measuring their minimum inhibitory concentrations (MIC90's) using the broth microdilution method according to the Clinical and Laboratory Standards Institute (CLSI, formerly the NCCLS) guidelines. Each well of a 96-well microtiter plate was filled with 50 μL of sterile broth media (−Fe or +Fe). Each test compound was dissolved in DMSO making a 20 mM solution, and then diluted with sterile broth media (−Fe or +Fe) to 400 or 800 μM. Exactly 50 μL of the compound solution was added to the first well of the microtiter plate and 2-fold serial dilutions were made down each row of the plate. Exactly 50 μL of bacterial inoculum (5×10^5 CFU/mL in broth media) was then added to each well giving a total volume of 100 μL/well. The plate was incubated at 37° C. for 20 h and then each well was examined for bacterial growth. The MIC90 was recorded as the lowest compound concentration (μM) required to inhibit 90% of bacterial growth as judged by turbidity of the culture media relative to a row of wells filled with a DMSO standard.
A general note: Broth dilution looks for growth in wells or tubes with falling amounts of substance.

The subject of experiment [2] is K. pneumoniae ATCC 8303 X68. In words: MIC90 by broth microdilution assay. As to conditions: Klebsiella pneumoniae; for MIC90: ATCC8303, 20 h, K. pneumoniae ATCC 8303 X68, 37° C., 20 h. It is filed as cell-based. The procedure:
as §1, §2, §3, §4

Experiment [3] concerns P. aeruginosa PAO1. In words: MIC90 by broth microdilution assay. It is filed as cell-based. The following applies: Pseudomonas aeruginosa, PAO1, 20 h, 37° C. Here is the method: as §1, §2, §3, §4
For experiment [4], the system named is P. aeruginosa Pa4. The experiment is described as follows: MIC90 by broth microdilution assay. As to conditions: Pseudomonas aeruginosa, PA4, 20 h, 37° C. It is filed as cell-based. Here is the method: as §1, §2, §3, §4
In experiment [5] the test system is P. aeruginosa KW799/wt. In words: MIC90 by broth microdilution assay. In kind it is cell-based. The following applies: Pseudomonas aeruginosa, 20 h, 37° C. The procedure: as §1, §2, §3, §4
Experiment [6] relates to P. aeruginosa Pa6. In words: MIC90 by broth microdilution assay. In kind it is cell-based, Pseudomonas aeruginosa. As to conditions: for MIC90: P. aeruginosa Pa6, 37° C., 20 h. The procedure: as §1, §2, §3, §4
Experiment [7] has as its system P. aeruginosa Pa4. In words: Agar diffusion antibacterial susceptibility assay. The following applies: 37° C.; for zone of inhibition at 200 µM / zone of inhibition at 100 µM: Pseudomonas aeruginosa, PA4, 24 h, read-out: Diameter of growth inhibition zones; for zone of inhibition at 200 µM / Diameter of growth inhibition zones: 50 μL of 0.2 mM solution; for Diameter of growth inhibition zones: 24 hours; for zone of inhibition at 100 µM: 50 μL of 0.1 mM solution. More on the design: key to Diameter of growth inhibition zones: partially clear inhibition zone/colonies in the inhibition zone; P: unclear inhibition zone/many colonies in the inhibition zone; indicates only a hint of growth inhibition detectable. It is filed as cell-based, Pseudomonas aeruginosa. Here is the method:
as §2
(§5) Antibacterial Susceptibility Testing by the Agar Diffusion Assay.
(§6) Antibacterial activity of the compounds was determined by a modified Kirby-Bauer agar diffusion assay. Overnight cultures of test organisms were grown in LB broth for 18-24 h and standard suspensions of […] were prepared in saline solution (0.9% NaCl) according to a 0.5 BaSO4 McFarland Standard. This standardized suspension (0.1 mL) was added to 34 mL of sterile, melted agar (−Fe or +Fe) tempered to 47-50° C. After gentle mixing, the inoculated agar media was poured into a sterile plastic petri dish (145 mm×20 mm) and allowed to solidify near a flame with the lid ajar for about 30 min. Wells of 9.0 mm diameter were cut from the petri dish agar and filled with exactly 50 μL of the test sample solution. The petri dish was incubated at 37° C. for 18-24 h and the inhibition zone diameters were measured (mm) with an electronic caliper after 24 h.
(Agar diffusion results depend on both activity and mobility in agar.)

Experiment [8] relates to P. aeruginosa K648 (pvd−, pch−). In words: Agar diffusion antibacterial susceptibility assay. It is filed as cell-based, Pseudomonas aeruginosa. As to conditions: for zone of inhibition at 200 µM / zone of inhibition at 100 µM: Pseudomonas aeruginosa, 24 h, read-out: Diameter of growth inhibition zones, P. aeruginosa K648 (pvd−, pch−), 37° C., 24 hours; for zone of inhibition at 200 µM: 50 μL of 0.2 mM solution; for zone of inhibition at 100 µM: 50 μL of 0.1 mM solution. The procedure:
as §2, §5, §6

Experiment [9] concerns P. aeruginosa KW799/wt. In words: Agar diffusion antibacterial susceptibility assay. As to conditions: 37° C.; for Diameter of growth inhibition zones: 24 hours; for zone of inhibition at 100 µM: 50 μL of 0.1 mM solution. In kind it is cell-based, Pseudomonas aeruginosa. Here is the method:
as §2, §5, §6

Experiment [10] deals with E. coli ATCC 25922. In words: MIC90 by broth microdilution assay. It is filed as cell-based, Escherichia coli. As to conditions: for MIC90: Escherichia coli, ATCC25922, 20 h, E. coli ATCC 25922, 37° C., 20 h. Here is the method:
as §1, §2, §3, §4

The mark [11] stands for this setting: read-out: MIC (MIC90), P. aeruginosa KW799/61, +Fe (iron-rich) MHII broth, 37° C.
[12] abbreviates: read-out: MIC (MIC90), P. aeruginosa KW799/61, −Fe (iron-deficient) MHII broth, 37° C.
The mark [13] stands for this setting: −Fe (iron-deficient) MHII broth.
Setting [14] is: Pseudomonas aeruginosa, +Fe (iron-rich) MHII broth.
[15] abbreviates: −Fe agar, 50 μL of 0.2 mM solution.

Structures are written as SMILES. ≈ marks a conversion by molar mass, not a printed value. Where two headings read alike, the source gives them in different places.

As a reminder, the MIC is the lowest concentration that inhibits growth of the organism.

Consider `CC1(C)S[C@@H]2[C@H](NC(=O)[C@H](N)c3ccc(O)cc3)C(=O)N2[C@H]1C(=O)O` [Amoxicillin, reference compound], for which the MIC90 in experiment [1] (setting [11]) was 0.46 µM (≈ 0.168 µg/mL); in experiment [1] (setting [12]) it was 0.39 µM (≈ 0.143 µg/mL); in [2] (+Fe (iron-rich) MHII broth) it was 100 µM (≈ 36.5 µg/mL); in experiment [2] (setting [13]), more than 100 µM; in experiment [3] (+Fe (iron-rich) MHII broth), more than 200 µM; in experiment [3] (setting [13]) it was more than 100 µM. Moreover, the MIC90 in [4] (+Fe (iron-rich) MHII broth) is more than 200 µM; in experiment [4] (setting [13]), more than 100 µM; in experiment [5] (+Fe (iron-rich) MHII broth), more than 200 µM; in experiment [5] (setting [13]), more than 200 µM; in experiment [6] (setting [13]), more than 200 µM; in experiment [6] (setting [14]) it was more than 200 µM. Also, the MIC90 in experiment [10] (+Fe (iron-rich) MHII broth) and in experiment [10] (setting [13]) was 4.17 µM (≈ 1.52 µg/mL) each time. Also, the zone of inhibition at 200 µM in [7] (+Fe agar) was 0 mm; in [8] (+Fe agar) it was 0 mm; in experiment [8] (−Fe agar), 0 mm; in experiment [9] (Pseudomonas aeruginosa, KW799/WT, 24 h, +Fe agar, 50 μL of 0.2 mM solution, read-out: Diameter of growth inhibition zones), 27 mm. For the same compound, the “Diameter of growth inhibition zones” value is “h” in [7] (−Fe agar) and 18p in [9] (setting [15]).
`CC1(C)S[C@@H]2[C@H](NC(=O)[C@H](N)c3ccccc3)C(=O)N2[C@H]1C(=O)O` [Ampicillin, reference compound]: the MIC90 in experiment [1] (setting [11]) was 0.52 µM (≈ 0.182 µg/mL); in experiment [1] (setting [12]) it was 0.78 µM (≈ 0.273 µg/mL); in experiment [2] (+Fe (iron-rich) MHII broth), more than 200 µM; in experiment [2] (setting [13]), more than 100 µM; in experiment [3] (+Fe (iron-rich) MHII broth) it was more than 200 µM; in experiment [3] (setting [13]), more than 100 µM. Moreover, the MIC90 was more than 200 µM in [4] (+Fe (iron-rich) MHII broth); more than 100 µM in [4] (setting [13]); more than 200 µM in [5] (+Fe (iron-rich) MHII broth); more than 200 µM in experiment [5] (setting [13]); more than 200 µM in [6] (setting [13]); more than 200 µM in experiment [6] (setting [14]). Besides, the MIC90 in [10] (+Fe (iron-rich) MHII broth) was found to be 16.7 µM (≈ 5.84 µg/mL); in [10] (setting [13]), 12.5 µM (≈ 4.37 µg/mL). The zone of inhibition at 200 µM in experiment [7] (+Fe agar), in [8] (+Fe agar) and in experiment [8] (−Fe agar) was 0 mm throughout. Also, the “Diameter of growth inhibition zones” value is on record as “h” in [7] (−Fe agar) and 23p in experiment [9] (setting [15]).
Take `CC(=O)Oc1cccc(C(=O)NCCCC(CCCNC(=O)c2cccc(OC(C)=O)c2OC(C)=O)(CCCNC(=O)c2cccc(OC(C)=O)c2OC(C)=O)NC(=O)CCC(=O)NC(C(=O)NC2C(=O)N3C2SC(C)(C)C3C(=O)O)c2ccccc2)c1OC(C)=O` (stereo not drawn) [Compound 10]: the MIC90 in experiment [1] (setting [11]) was 12.5 µM (≈ 16.2 µg/mL); in experiment [1] (setting [12]), 0.067 µM (≈ 0.0867 µg/mL); in experiment [2] (+Fe (iron-rich) MHII broth), more than 200 µM; in experiment [2] (setting [13]), more than 100 µM; in experiment [3] (+Fe (iron-rich) MHII broth), 50 µM (≈ 64.7 µg/mL); in [3] (setting [13]) it was 0.39 µM (≈ 0.505 µg/mL). Further, the MIC90 in experiment [4] (+Fe (iron-rich) MHII broth) was 25 µM (≈ 32.4 µg/mL); in experiment [4] (setting [13]), 0.39 µM (≈ 0.505 µg/mL); in experiment [5] (+Fe (iron-rich) MHII broth) it was 33 µM (≈ 42.7 µg/mL); in experiment [5] (setting [13]), 0.05 µM (≈ 0.0647 µg/mL); in [6] (setting [13]), more than 200 µM; in experiment [6] (setting [14]), more than 200 µM. The MIC90 in experiment [10] (+Fe (iron-rich) MHII broth) is 150 µM (≈ 194 µg/mL); in [10] (setting [13]), 1.56 µM (≈ 2.02 µg/mL). Further, the MIC in experiment [2] (ATCC8303, stated as inactive, read-out: MIC against K. pneumoniae) is more than 100 µM. Besides, the “activity against Pa6 (MIC assay, in words)” value in experiment [6] (exception among wild type strains) is “inactive”. The zone of inhibition at 100 µM was found to be 0 mm in [7] (+Fe agar); 18 mm in experiment [7] (−Fe agar); 0 mm in experiment [8] (+Fe agar); 15 mm in [8] (−Fe agar); 20 mm in experiment [9] (Pseudomonas aeruginosa, KW799/WT, 24 h, +Fe agar, read-out: Diameter of growth inhibition zones); 24 mm in [9] (Pseudomonas aeruginosa, KW799/WT, 24 h, −Fe agar, read-out: Diameter of growth inhibition zones). Moreover, the “activity against K648 strain (agar diffusion, in words)” value in experiment [8] (iron-rich medium) is “inactive”. Besides, the “increase in activity against E. coli relative to ampicillin” value in [10] (MIC compared with parent drug) was 8 fold.

Source of the values: patent publication US9302012B2, “Anti-bacterial siderophore-aminopenicillin conjugates” (University of Notre Dame Du Lac, priority 2012, dated 2016).
